Assay results published in PMC9926489, “Chemical Optimization of Selective Pseudomonas aeruginosa LasB Elastase Inhibitors and Their Impact on LasB-Mediated Activation of IL-1β in Cellular and Animal Infection Models” (ACS Infectious Diseases, 2023).

How the values were obtained:
MMP-1 = molecular target: T1, MMP-1 (Homo sapiens, UniProt P03956); experiment: MMP-1 selectivity assay; format: biochemical; conditions: human MMP-1
T1 sequence (P03956 100-469): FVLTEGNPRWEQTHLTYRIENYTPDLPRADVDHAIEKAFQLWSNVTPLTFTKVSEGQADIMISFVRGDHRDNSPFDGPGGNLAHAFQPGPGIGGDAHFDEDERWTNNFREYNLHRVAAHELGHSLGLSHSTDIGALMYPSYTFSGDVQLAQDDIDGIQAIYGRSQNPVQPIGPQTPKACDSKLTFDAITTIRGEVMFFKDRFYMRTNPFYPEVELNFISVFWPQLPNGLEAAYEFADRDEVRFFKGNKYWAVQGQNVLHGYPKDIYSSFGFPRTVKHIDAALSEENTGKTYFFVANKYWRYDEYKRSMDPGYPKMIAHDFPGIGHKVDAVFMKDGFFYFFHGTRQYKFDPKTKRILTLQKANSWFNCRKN
Procedure: (§1) Selectivity of compound inhibition was evaluated against other proteases at concentrations between 0.4 and 200 μM. Activity against rabbit angiotensin-converting enzyme (ACE, Sigma) was assessed using 10 μM fluorogenic substrate Abz-Phe-Arg-Lys(Dnp)-P (Enzo Life Sciences) in 100 mM Tris-HCl pH 7, 50 mM NaCl, 10 μM Zn SO4. Activity against human matrix metalloproteases (MMP)-2 and MMP-9 was assessed in 50 mM HEPES pH 7.5, 10 mM CaCl2, 0.01% Triton X-100 using 4 μM fluorogenic substrate Mca-Pro-Leu-Gly-Leu-Dpa-Ala-Arg-NH2 (Enzo Life Sciences). Activity against MMP-1 and MMP-13 was assessed in 25 mM HEPES pH 7.5, 100 mM NaCl, 100 mM CaCl2, 0.0005% Brij using 7.5 μM fluorogenic substrate Mca-Lys-Pro-Leu-Gly-Leu-Dpa-Ala-Arg-NH2 (Sigma) for MMP-1 and 1.25 μM fluorogenic substrate Mca-Pro-Cha-Gly-Nva-His-Ala-Dpa-NH2 (Millipore) for MMP-13. Activity against human neutrophil elastase (HNE, Enzo Life Sciences) was assessed in 100 mM HEPES pH 7.5, 500 mM NaCl, 0.01% of Triton X-100 using 100 μM fluorogenic substrate MeOSuc-AAPV-AMC (Enzo Life Sciences).

MMP-9 = MMP-9 (Homo sapiens, UniProt P14780); experiment: MMP-9 selectivity assay; format: biochemical; conditions: human MMP-9
Chain of MMP-9 (P14780 94-707): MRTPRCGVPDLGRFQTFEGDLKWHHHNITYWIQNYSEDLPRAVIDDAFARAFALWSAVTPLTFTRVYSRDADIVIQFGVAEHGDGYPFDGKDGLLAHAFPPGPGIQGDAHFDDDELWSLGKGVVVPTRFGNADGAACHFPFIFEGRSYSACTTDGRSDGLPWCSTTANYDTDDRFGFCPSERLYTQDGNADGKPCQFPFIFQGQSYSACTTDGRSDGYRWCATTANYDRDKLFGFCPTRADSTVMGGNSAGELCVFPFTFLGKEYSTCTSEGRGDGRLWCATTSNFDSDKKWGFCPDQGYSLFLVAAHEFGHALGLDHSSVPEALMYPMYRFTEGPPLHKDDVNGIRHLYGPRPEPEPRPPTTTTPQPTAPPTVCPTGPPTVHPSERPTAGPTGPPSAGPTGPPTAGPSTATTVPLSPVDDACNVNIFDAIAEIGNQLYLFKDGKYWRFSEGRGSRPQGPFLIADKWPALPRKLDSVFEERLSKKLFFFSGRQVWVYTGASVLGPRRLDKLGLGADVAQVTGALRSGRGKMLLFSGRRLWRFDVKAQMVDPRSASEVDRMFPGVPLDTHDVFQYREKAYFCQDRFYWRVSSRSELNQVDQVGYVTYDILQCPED
Procedure: as §1

[1] = Cytotoxicity screening (MTS), BSMC; format: cell-based; conditions: human, bronchial smooth muscle cells (BSMC)
Procedure: Bronchial smooth muscle cells (BSMC, Lonza CC-2576), small airway epithelial cells (SAEC, Lonza CC-2547), or HepG2 cells (ATCC HB-8065) were seeded in 96-well plates at a density of 25,000 per well. Culture of these cells throughout the protocol utilized incubation at 37 °C, 5% CO2 in a humidified atmosphere, with BSMC and SAEC cells cultured in cell-specific media (Lonza) and HepG2 cells cultured in RPMI 1640 medium containing Glutamax (Gibco) and 10% fetal bovine serum. Plates containing BSMC cells were collagen coated to assist with cell adhesion. Following an overnight settling period, media was replaced with fresh media, with, or without, compound. Compound concentrations tested were 1, 3, 10, 30, and 100 μM, in duplicate. The cells were incubated with compound for 24 h. Control (1% DMSO) and positive standards terfenadine- and salmeterol-treated groups were included for both cell lines. […] The reaction was stopped with 12.5 μL of 10% SDS, plates briefly shaken, and absorbance (490 nm) read using a Spectramax M5e plate reader (Molecular Devices). Percentages of viable cells were calculated as: (test sample Abs 490 nM-mean blank Abs 490 nm)/(mean control Abs 490 nM-mean blank Abs 490 nm) × 100.

MMP-13 = MMP-13 (Homo sapiens, UniProt P45452); experiment: MMP-13 selectivity assay; format: biochemical; conditions: human MMP-13
Procedure: as §1

[2] = Mouse pharmacokinetics, lung epithelial lining fluid (ELF); format: in vivo; conditions: for ELF concentration (C0) relative to LasB Ki: 10 mg/kg IV; for Kp / C0 / AUC(0-t) / clearance / half-life: female, ICR (CD-1); for Kp: lung epithelial lining fluid (ELF) and plasma, iv, read-out: lung penetration (AUClast ELF/AUClast plasma); for Kp / lung penetration (AUClast plasma/AUClast ELF): 10 mg/kg; for Kp / C0 / AUC(0-t) / clearance / half-life / lung penetration (AUClast plasma/AUClast ELF): single 10 mg/kg IV dose; for C0 / AUC(0-t) / clearance / half-life: lung epithelial lining fluid (ELF), epithelial lining fluid; for AUC(0-t): read-out: ELF AUClast; for clearance: read-out: ELF CL; for half-life: read-out: ELF t1/2 (converted)
Procedure: The PK parameters of compounds 12 and 16 were investigated in both plasma and lung epithelial lining fluid (ELF) after intravenous (IV) administration of compounds at 10 mg/kg in mice (Figure 4 and Table 5). […] Accordingly, these levels of lung penetration (9.5 and 5.2%, respectively) warranted the evaluation of the compounds in an animal model of lung infection using IV dosing.
Unrestrained, nonanesthetized mice (Female ICR (CD-1); Age 5–6 weeks; Size 22 ± 2 g; specific pathogen-free (SPF)) were injected IV with test article formulations via the tail vein. Animals were sacrificed by cardiac puncture under CO2 euthanasia at 0.08, 0.25, 1, 2, 4, 8, and 24 h post dosing. Blood was drawn into tubes coated with EDTA-K3, mixed gently and plasma was then harvested and kept frozen at −70 °C until further processing. To collect […] (BALF), 0.5 mL of PBS was administered once through a tracheal cannula after which about 0.2 to 0.3 mL of BALF was obtained. The BALF was kept on ice and centrifuged within 1 h of collection and the supernatant was harvested and kept frozen at −70 °C. Plasma and BALF samples were analyzed by LC-MS/MS (AB SCIEX API 3000 mass spectrometer). The apparent ELF volume of each BALF sample was estimated using urea as an endogenous marker of the ELF dilution. The urea concentrations in BALF and plasma samples were determined with the QuantiChrom Urea Assay Kit (DIUR-100) (BioAssay Systems) following the manufacturer’s protocol. For each BALF sample, the drug concentration in ELF was calculated as follows: drug concentrationELF = drug concentrationBALF × (urea concentrationplasma/urea concentrationBALF). The PK parameters of each compound after IV dosing (t1/2, C0, AUClast, and CL) were obtained from the noncompartmental analysis (NCA) of the plasma data using WinNonlin.

Structure (SMILES)	IC50 (MMP-1) [µM]	IC50 (MMP-9) [µM]	IC50 at 24 h [1] [µM]	IC50 (MMP-13) [µM]	ELF concentration (C0) relative to LasB Ki [2]	Kp [2]	C0 [2] [ng/mL]	AUC(0-t) [2] [ng·h/mL]	clearance [2] [mL/min/kg]	half-life [2] [h]	lung penetration (AUClast plasma/AUClast ELF) [2] [%]
COc1cc2sc(CNC(=O)C3(CC(=O)O)Cc4ccccc4C3)nc2cc1OCCC[N+](C)(C)C [Compound 12]	> 100	> 200	> 100	> 100	over 100 fold	0.095	2700	57700	1.5	25.8	9.54
COc1cc2sc(CNC(=O)C3(CC(=O)O)Cc4cc(F)c(F)cc4C3)nc2cc1OCCC[N+](C)(CCO)CCO [Compound 16]	> 100	> 200	> 100	> 100	over 100 fold	0.052	2700	27000	5.2	9.5	5.22
